Experimental data published in patent US20090030088A1, “Therapeutic benefits of gossypol, 6-methoxy gossypol, and 6,6'-dimothxy gossypol” (Clemson University, priority 2007, published 2009).

Columns and labels:
[1] = DPPH free radical scavenging assay; details: for concentration to scavenge 50% free radicals (IC50 value): DPPH in DCM, 30 min
Procedure: DPPH Free Radical Scavenging Assay. Scavenging activities on DPPH free radicals by gossypol and methoxy gossypol derivatives were determined according to the method of (9) with slight modification. The reaction mixture was made by mixing 0.4 mL of sample solution in DCM and same volume of 0.25 mM DPPH in DCM, shaken vigorously, incubated for 30 min in the dark at room temperature, and measured spectrophotometrically at 517 nm. BHT, a common used antioxidant, was used as a standard for comparison. The lower absorbance of reaction mixture indicated higher free radical scavenging activity, and the reduction of DPPH free radicals was calculated as following: […]

[2] = system: MCF-7 (human breast cancer cell line); test: Cancer cell proliferation assay (CellTiter 96), MCF-7; type: cell-based; details: 10 ppm
Procedure: (§1) Anticancer Activities. Three cancer cell lines, MCF-7 (human breast cancer cell line), Caco-2 (human colon cancer cell line) and SiHa (cervical cancer cell line) were purchased from American Type Culture Collection (ATCC) (Rockville, Md.). MCF-7 and SiHa were cultured in RPMI-1640 with L-glutamine (2 mM), sodium pyruvate (1 mM), penicillin (100 unit/mL), streptomycin (0.1 mg/mL), 0.1 mM non-essential amino acids, 2.0 g/L sodium bicarbonate and 10% newborn calf serum. For Caco-2 cells, 10% fetal bovine serum was added instead of 10% newborn calf serum. All cell lines were incubated at 37° C. with 5% CO2 and 90-100% relative humidity. Medium renewal was carried out 2-3 times per week, and cells were subcultured when they were about 80-90% confluence.
(§2) Prior to chemical treatment, 10^4 cells/well (100 μL) were seeded into a 96-well tissue culture plate, and allowed to attach for 24 hours, then treated with defined concentrations of the tested chemicals in DMSO. Negative controls were cells treated with DMSO only, and DMSO concentration was kept 2% in each well. After 24 hour incubation, cell proliferation was determined using the CellTiter 96® aqueous nonradioactivity cell proliferation assay according to the manufacture's recommendations (Promega, Madison, Wis.) and recorded on universal EL800 Bio-Tek microplate reader at 490 nm.

[3] = system: SiHa (cervical cancer cell line); test: Cancer cell proliferation assay (CellTiter 96), SiHa; type: cell-based; details: 10 ppm
Procedure: as §1, §2

[4] = system: Caco-2 (human colon cancer cell line); test: Cancer cell proliferation assay (CellTiter 96), Caco-2; type: cell-based; details: 10 ppm
Procedure: as §1, §2

[5] = system: plasmid DNA; test: DNA strand scission assay (H2O2/UV hydroxyl radicals); design: species or system E. coli; details: no oxidative stress
Procedure: Analysis of DNA Strand Breakage. The DNA strand scission assay was performed as described by Keum et al., (11) with minor modifications. The plasmid DNA was prepared and purified from E. coli cultures by the method (12). The reaction mixture (15 μL) contained 10 mM Tris-HCl, 1 mM EDTA buffer (pH 8.0), plasmid DNA (1 μL), and H2O2 (0.04 M). Gossypol and methoxy gossypol derivatives dissolved in DMSO at the defined concentrations were added prior to H2O2 addition. Hydroxyl radicals were generated by irradiation of the reaction mixture at a distance of 30 cm with a 12 W UV lamp. After incubation at room temperature for 30 min, the reaction was stopped by adding a loading buffer (0.25% bromophenol blue tracking dye and 40% sucrose), and analyzed by 1% agarose gel electrophoresis. The gel was visualized by staining with ethidium bromide, and photographed on a transiluminator (Biorad).

[6] = system: Trypanosome brucei cells; test: Anti-trypanosomal activity, relative cell viability by flow cytometry; type: cell-based
Procedure: Anti-trypanosomal activities. Trypanosome brucei cells were grown in HMI-9 medium supplemented with 10% heat-inactivated fetal bovine serum and cultured as described by (13). Prior to treatment, 200 μL of the cells were seeded into 96-well tissue culture plate and treated with 2 μL of gossypol or methoxy gossypol derivatives dissolved in DMSO. After 24 hour incubation at 37° C. with 5% CO2 and 90-100% relative humidity, the cells were counted on a Becton Dickinson FACScan flow Cytometer, and the relative cell viability was calculated by comparing the vital cell number with control wells treated only with DMSO. Statistical Analysis. Each experiment was done at least three times, mean values were average of the triplicates, and the data were subjected to the analysis of variance (ANOVA).

| Structure (SMILES) | concentration to scavenge 50% free radicals (IC50 value) [1] [ppm] | free radicals scavenged ([1]; compound at 20 ppm) [%] | cancer inhibitive activity compared with gossypol [2] | cancer inhibitive activity compared with gossypol [3] | cancer inhibitive activity compared with gossypol [4] | DNA damage by the presence of the chemical alone [5] | inhibition of trypanosome cell growth ([6]; 1 ppm, 24 hour incubation) [%] | free radicals scavenged ([1]; BHT at 1000 ppm) [%] | free radicals scavenged ([1]; BHT at 1500 ppm) [%] | inhibition at 1 ppm ([6]; 24 h, read-out: inhibition of trypanosome cell growth) [%] |
| --- | --- | --- | --- | --- | --- | --- | --- | --- | --- | --- |
| COc1c(O)c(C=O)c2c(O)c(-c3c(C)cc4c(C(C)C)c(OC)c(O)c(C=O)c4c3O)c(C)cc2c1C(C)C [6,6′-dimethoxy gossypol] | 16.8 | 60 | higher cancer inhibitive activity than gossypol | higher cancer inhibitive activity than gossypol | higher cancer inhibitive activity than gossypol | – | – | – | – | – |
| COc1c(O)c(C=O)c2c(O)c(-c3c(C)cc4c(C(C)C)c(O)c(O)c(C=O)c4c3O)c(C)cc2c1C(C)C [6-methoxy gossypol] | 16.4 | 60 | higher cancer inhibitive activity than gossypol | higher cancer inhibitive activity than gossypol | higher cancer inhibitive activity than gossypol | did not cause the DNA damage | 40 | – | – | – |
| Cc1cc(C(C)(C)C)c(O)c(C(C)(C)C)c1 [BHT, butylated hydroxytoluene, reference compound] | – | – | – | – | – | – | – | ~60 | 75 | – |
| Cc1cc2c(C(C)C)c(O)c(O)c(C=O)c2c(O)c1-c1c(C)cc2c(C(C)C)c(O)c(O)c(C=O)c2c1O [gossypol] | – | – | – | – | – | did not cause the DNA damage | – | – | – | 40 |
